Reference: PubChem BioAssay AID1963435 (Molecular Pharmacology Branch, DTP, NCI, 2024)
Each block holds one molecule with its values, some of them ahead of it.

Tested on: PANC-1 complex spheroid growth, percent test/control
Assay: Anticancer human tumor PANC-1 cell line growth inhibition [Asc];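 also: spheroids exposed to agents for 7 days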;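 as to viability, T/C: percent viability relative to DMSO vehicle wells taken as 100%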
Conditions: for IC50: curve of first compound; for viability, T/C: stronger effect = lower value
Experimental: Multicellular complex tumor spheroid response to apoptosis pathway targeting inhibitors Alrizomadlin, Pelcitoclax, and Dasminapant in combination with a variety of drugs and investigational agents in selected tumor cell lines
The MDM2 inhibitor alrizomadlin, the Bcl-2/Bcl-xL inhibitor pelcitoclax, and the IAPs inhibitor dasminapant were evaluated both individually and in combination with standard of care and investigational anticancer small molecules within a complex spheroid model of solid tumors. . Complex spheroids include a stromal component modeled by human endothelial cells (HUVEC) and fibroblasts modeled by human mesenchymal stem cells (MSCs). The concentration ranges selected for each drug and investigational agent were based upon clinically achievable concentrations if the clinical Cmax of the agent was known.
Compounds. The drugs and investigational agents: alrizomadlin (APG-115; NSC831270), pelcitoclax (APG-1252; NSC835773), dasminapant (APG-1387;NSC834197), TAK-243 (NSC785004), copanlisib (NSC809693), olaparib (NSC753686), talazoparib (NSC767125), cobimetinib (NSC 768068), eltanexor (KPT-8602, NSC 794443), abemaciclib (NSC 768073), sotorasib (NSC818433), adagrasib (NSC 831453), MRTX-1133 (NSC 836407), Iadademestat (ORY1001, NSC 806812), and RMC-4630 (NSC839698), were obtained from the NCI Developmental Therapeutics Program Chemical Repository. The FDA-approved anticancer drug set is available from the Developmental Therapeutics Program at https://dtp.cancer.gov/organization/dscb/obtaining/available plates.htm. […] The stock solutions were prepared in dimethyl sulfoxide (DMSO, Sigma-Aldrich, St. Louis, MO, cat. D2650) at 800-fold the tested concentration and stored at -70 degrees C prior to their use. All drugs and investigational agents were tested over a range starting from a high concentration at or near the clinical Cmax and decreasing in half-log increments. If the clinical Cmax for an agent had not been determined, the highest concentration tested was 10 microM.
The patient-derived cancer (PDC) cell lines include five colon adenocarcinomas: 186277-243-T-J2-PDC, 616215-338-R-J1-PDC, 439559-082-T-J2-PDC, 463943-066-T-J2-PDC, and 519858-162-T-J1-PDC; three pancreatic carcinomas: 323965-272-R-J2-PDC, 521955-158-R6-J3-PDC, and 521955-158-R2-J5-PDC; two uterine sarcomas: 327498-152-R-J2-PDC and 993429-296-R-J1-PDC; two rhabdomyosarcomas: 755483-174-R-J1-PDC and 772245-204-R-J1-PDC; two soft tissue sarcomas: 126254-015-R-J1-PDC and 494315-158-R-J1-PDC; two malignant fibrous histiocytomas: 317291-083-R-J1-PDC and 596521-263-R-J1-PDC; two breast carcinomas: 171881-019-R-J1-PDC and 885512-296-R-J2-PDC; and one ovarian carcinoma: 6556581-035-R-J-PDC were obtained from the NCI PDMR, (https://pdmr.cancer.gov). The established cell lines HSSY-2 synovial sarcoma (RRID:CVCL 8719), SYO-1 synovial sarcoma (RRID:CVCL_7146), MPNST malignant peripheral neural sheath tumor were obtained from the Sloan Kettering Institute. The following established cell lines were purchased from the American Type Culture Collection (ATCC, Manassas, VA), Sor the received from the NCI repository:, PANC-1 pancreatic carcinoma (CRL-1469, RRID:CVCL_0480), OVCAR-5 ovarian carcinoma (RRID:CVCL_1628), OVCAR-8 ovarian carcinoma (RRID:CVCL_1629), , MCF-7 breast carcinoma (CRL-12584, RRID:CVCL_0031), MDA-MB-231 breast carcinoma (CRL-12532, RRID:CVCL_0062), NCI-H1876 small cell lung carcinoma (CRL-5902, RRID:CVCL_1503), NCI-H510A small cell lung carcinoma (HTB-184, RRID:CVCL_1565), NCI-H1417 (CRL-5869, RRID:CVCL_1469), and NCI-H196 small cell lung carcinoma (CRL-5823, RRID:CVCL_1509). Dr. Peter Houghton (Greehey Children's Cancer Research Institute, University of Texas Health Science Center, San Antonio, TX) provided Rh-18 rhabdomyosarcoma (RRID:CVCL_1659). Pooled donor human umbilical vein endothelial cells (HUVEC, Lonza, cat. CC-2519) and human mesenchymal stem cells (hMSC, Lonza, cat. PT-2501) were purchased from Lonza (Walkersville, MD).
Cell Culture. […]

- IC50 (second compound 0.00949 µM): > 100 nM
- IC50 (second compound 0.03 µM): > 100 nM
- IC50 (second compound 0.0949 µM): > 100 nM
- IC50 (second compound 0.3 µM): > 100 nM
- IC50 (second compound 0.949 µM): > 100 nM
- IC50 (second compound 3 µM): > 100 nM
Structure (SMILES): NC1CCC(NC2CC2c2ccccc2)CC1 (centres undefined) + CCN1C(C(=O)NC23CCC(C(=O)O)(CC2)CC3)C(c2cccc(Cl)c2F)C2(C(=O)Nc3cc(Cl)ccc32)C12CCCCC2
- viability, T/C (second compound 0.00949 µM, first compound 0.000316 µM): 97.6%
- viability, T/C (second compound 0.00949 µM, first compound 0.001 µM): 89%
- viability, T/C (second compound 0.00949 µM, first compound 0.00316 µM): 97.2%
- viability, T/C (second compound 0.00949 µM, first compound 0.01 µM): 85.9%
- viability, T/C (second compound 0.00949 µM, first compound 0.0316 µM): 82%
- viability, T/C (second compound 0.00949 µM, first compound 0.1 µM): 104%
- viability, T/C (second compound 0.03 µM, first compound 0.000316 µM): 84.6%
- viability, T/C (second compound 0.03 µM, first compound 0.001 µM): 90.1%
- viability, T/C (second compound 0.03 µM, first compound 0.00316 µM): 103%
- viability, T/C (second compound 0.03 µM, first compound 0.01 µM): 87%
- viability, T/C (second compound 0.03 µM, first compound 0.0316 µM): 91.2%
- viability, T/C (second compound 0.03 µM, first compound 0.1 µM): 90.1%
- viability, T/C (second compound 0.0949 µM, first compound 0.000316 µM): 99.7%
- viability, T/C (second compound 0.0949 µM, first compound 0.001 µM): 94.7%
- viability, T/C (second compound 0.0949 µM, first compound 0.00316 µM): 93.5%
- viability, T/C (second compound 0.0949 µM, first compound 0.01 µM): 95.5%
- viability, T/C (second compound 0.0949 µM, first compound 0.0316 µM): 97.7%
- viability, T/C (second compound 0.0949 µM, first compound 0.1 µM): 95.4%
- viability, T/C (second compound 0.3 µM, first compound 0.000316 µM): 96.7%
- viability, T/C (second compound 0.3 µM, first compound 0.001 µM): 101%
- viability, T/C (second compound 0.3 µM, first compound 0.00316 µM): 102%
- viability, T/C (second compound 0.3 µM, first compound 0.01 µM): 98.2%
- viability, T/C (second compound 0.3 µM, first compound 0.0316 µM): 102%
- viability, T/C (second compound 0.3 µM, first compound 0.1 µM): 91%
- viability, T/C (second compound 0.949 µM, first compound 0.000316 µM): 109%
- viability, T/C (second compound 0.949 µM, first compound 0.001 µM): 115%
- viability, T/C (second compound 0.949 µM, first compound 0.00316 µM): 104%
- viability, T/C (second compound 0.949 µM, first compound 0.01 µM): 107%
- viability, T/C (second compound 0.949 µM, first compound 0.0316 µM): 97.2%
- viability, T/C (second compound 0.949 µM, first compound 0.1 µM): 89.2%
- viability, T/C (second compound 3 µM, first compound 0.000316 µM): 109%
- viability, T/C (second compound 3 µM, first compound 0.001 µM): 112%
- viability, T/C (second compound 3 µM, first compound 0.00316 µM): 101%
- viability, T/C (second compound 3 µM, first compound 0.01 µM): 110%
- viability, T/C (second compound 3 µM, first compound 0.0316 µM): 95.6%
- viability, T/C (second compound 3 µM, first compound 0.1 µM): 110%

- IC50 (second compound 0.0316 µM): > 1000 nM
- IC50 (second compound 0.1 µM): > 1000 nM
- IC50 (second compound 0.316 µM): > 1000 nM
- IC50 (second compound 1 µM): > 1000 nM
- IC50 (second compound 3.16 µM): > 1000 nM
- IC50 (second compound 10 µM): > 1000 nM
Structure (SMILES): CCN1CCN(Cc2ccc(Nc3ncc(F)c(-c4cc(F)c5nc(C)n(C(C)C)c5c4)n3)nc2)CC1 + Cc1c(S(C)(=O)=O)c(-c2cc(F)cc(N3CCN(c4ccc(NS(=O)(=O)c5ccc(NC(CCN6CCC(C(=O)OCCCP(=O)(O)O)CC6)CSc6ccccc6)c(S(=O)(=O)C(F)(F)F)c5)cc4)CC3)c2)c(-c2ccc(Cl)cc2)n1C(C)C
- viability, T/C (second compound 0.0316 µM, first compound 0.00316 µM): 93.5%
- viability, T/C (second compound 0.0316 µM, first compound 0.01 µM): 108%
- viability, T/C (second compound 0.0316 µM, first compound 0.0316 µM): 102%
- viability, T/C (second compound 0.0316 µM, first compound 0.1 µM): 121%
- viability, T/C (second compound 0.0316 µM, first compound 0.316 µM): 124%
- viability, T/C (second compound 0.0316 µM, first compound 1 µM): 129%
- viability, T/C (second compound 0.1 µM, first compound 0.00316 µM): 96%
- viability, T/C (second compound 0.1 µM, first compound 0.01 µM): 100%
- viability, T/C (second compound 0.1 µM, first compound 0.0316 µM): 99.5%
- viability, T/C (second compound 0.1 µM, first compound 0.1 µM): 115%
- viability, T/C (second compound 0.1 µM, first compound 0.316 µM): 121%
- viability, T/C (second compound 0.1 µM, first compound 1 µM): 137%
- viability, T/C (second compound 0.316 µM, first compound 0.00316 µM): 105%
- viability, T/C (second compound 0.316 µM, first compound 0.01 µM): 116%
- viability, T/C (second compound 0.316 µM, first compound 0.0316 µM): 108%
- viability, T/C (second compound 0.316 µM, first compound 0.1 µM): 103%
- viability, T/C (second compound 0.316 µM, first compound 0.316 µM): 123%
- viability, T/C (second compound 0.316 µM, first compound 1 µM): 127%
- viability, T/C (second compound 1 µM, first compound 0.00316 µM): 104%
- viability, T/C (second compound 1 µM, first compound 0.01 µM): 101%
- viability, T/C (second compound 1 µM, first compound 0.0316 µM): 115%
- viability, T/C (second compound 1 µM, first compound 0.1 µM): 126%
- viability, T/C (second compound 1 µM, first compound 0.316 µM): 115%
- viability, T/C (second compound 1 µM, first compound 1 µM): 125%
- viability, T/C (second compound 3.16 µM, first compound 0.00316 µM): 110%
- viability, T/C (second compound 3.16 µM, first compound 0.01 µM): 104%
- viability, T/C (second compound 3.16 µM, first compound 0.0316 µM): 102%
- viability, T/C (second compound 3.16 µM, first compound 0.1 µM): 120%
- viability, T/C (second compound 3.16 µM, first compound 0.316 µM): 123%
- viability, T/C (second compound 3.16 µM, first compound 1 µM): 125%
- viability, T/C (second compound 10 µM, first compound 0.00316 µM): 171%
- viability, T/C (second compound 10 µM, first compound 0.01 µM): 188%
- viability, T/C (second compound 10 µM, first compound 0.0316 µM): 174%
- viability, T/C (second compound 10 µM, first compound 0.1 µM): 175%
- viability, T/C (second compound 10 µM, first compound 0.316 µM): 168%
- viability, T/C (second compound 10 µM, first compound 1 µM): 140%
